According to PubChem BioAssay (NCI):
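48-hour exposure; five concentrations; linearly interpolated endpoints. GI50: concentration for 50% inhibition of growth. TGI: total growth inhibition.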

Legend:
Test in all cases: DTP human tumour cell line panel, 48 h
SF-295 CNS = system: SF-295 CNS
OVCAR-3 ovarian = system: OVCAR-3 ovarian
HT29 colon = system: HT29 colon
IGROV1 ovarian = system: IGROV1 ovarian
U251 CNS = system: U251 CNS
KM12 colon = system: KM12 colon
SK-MEL-5 melanoma = system: SK-MEL-5 melanoma
SK-MEL-2 melanoma = system: SK-MEL-2 melanoma
RXF 393 renal = system: RXF 393 renal
MALME-3M melanoma = system: MALME-3M melanoma

| Compound | TGI (SF-295 CNS) [µM] | TGI (OVCAR-3 ovarian) [µM] | TGI (HT29 colon) [µM] | TGI (IGROV1 ovarian) [µM] | TGI (U251 CNS) [µM] | TGI (KM12 colon) [µM] | TGI (SK-MEL-5 melanoma) [µM] | TGI (SK-MEL-2 melanoma) [µM] | TGI (RXF 393 renal) [µM] | TGI (MALME-3M melanoma) [µM] | GI50 (SF-295 CNS) [µM] | GI50 (OVCAR-3 ovarian) [µM] | GI50 (HT29 colon) [µM] | GI50 (IGROV1 ovarian) [µM] | GI50 (U251 CNS) [µM] | GI50 (KM12 colon) [µM] | GI50 (SK-MEL-5 melanoma) [µM] | GI50 (SK-MEL-2 melanoma) [µM] | GI50 (RXF 393 renal) [µM] | GI50 (MALME-3M melanoma) [µM] |
| --- | --- | --- | --- | --- | --- | --- | --- | --- | --- | --- | --- | --- | --- | --- | --- | --- | --- | --- | --- | --- |
| O=C(O)CC(C(=O)O)C1c2ccccc2-c2ccccc21 (stereo not given) | > 100 | > 100 | > 100 | > 100 | > 100 | > 100 | > 100 | > 100 | > 100 | > 100 | – | – | – | – | – | – | – | – | – | – |
| OC(Cc1ccccc1)(Cc1ccccc1)c1ccccc1 | 34.9 | 32.8 | 34.9 | 33.7 | 32.8 | 33.3 | 32.5 | 29.6 | 29.3 | 27.1 | – | – | – | – | – | – | – | – | – | – |
| Nc1cc(S(=O)(=O)O)cc2cc(S(=O)(=O)O)c(N=Nc3ccc(-c4ccc(N=Nc5c(S(=O)(=O)O)cc6cc(S(=O)(=O)O)cc(N)c6c5O)cc4)cc3)c(O)c12 | > 100 | > 100 | > 100 | > 100 | > 100 | > 100 | > 100 | > 100 | > 100 | > 100 | – | – | – | – | – | – | – | – | – | – |
| O=Nc1ccc(O)c2ncccc12 | 36 | 12.4 | 34.6 | 18.9 | 14.5 | 20.4 | 19.7 | 6.39 | 5.61 | 25.6 | – | – | – | – | – | – | – | – | – | – |
| CCN(CC)C(=S)SC(=S)N(CC)CC | > 100 | > 94.4 | – | > 100 | > 100 | 64.2 | > 46.5 | > 100 | > 100 | > 58.4 | – | – | – | – | – | – | – | – | – | – |
| c1ccc(-n2cnnc2-c2nsc3ccccc23)cc1 | – | > 100 | > 100 | > 100 | > 100 | > 100 | > 100 | > 100 | > 100 | – | – | – | – | – | – | – | – | – | – | – |
| COc1ccc(-c2nn(-c3ccc(NC(=O)Nc4ccc(Cl)c(Cl)c4)cc3)cc2-c2ccncc2)cc1Cl | > 100 | > 100 | > 100 | > 100 | > 100 | > 100 | 5.96 | 4.76 | 2.89 | 8.47 | 2.21 | 2.64 | 2.55 | 3.44 | 1.36 | 2.13 | 2.26 | 2.02 | 0.862 | 2.47 |
| CC(C)=CCc1c(O)ccc2c1OC1c3ccc(O)c(CC=C(C)C)c3OCC21 (stereo not given) | 24.3 | 27 | > 61.9 | 25.8 | 21.3 | 33.7 | 17.8 | 34.3 | 22.1 | 33.6 | – | – | – | – | – | – | – | – | – | – |
| C[C@H](C(=O)N[C@@H](Cc1ccc(-c2ccccc2)cc1)C(=O)NC1CC(C)(C)N(C)C(C)(C)C1)c1ccc(-c2ccccc2)c(F)c1 | – | 2.56 | – | – | – | – | 2.94 | 3.55 | 2.28 | – | – | 1.19 | – | – | – | – | 1.59 | 1.61 | 0.884 | – |
| COc1cc(C(C)(C)C)cc(OC)c1C(O)(c1c(OC)cc(C(C)(C)C)cc1OC)c1c(OC)cc(C(C)(C)C)cc1OC | 0.479 | 0.894 | 0.877 | 0.873 | 1.23 | 1.05 | 0.552 | 0.692 | 0.871 | 0.683 | 0.221 | 0.278 | 0.224 | 0.316 | 0.0636 | 0.349 | 0.236 | 0.325 | 0.324 | 0.234 |
| O=[N+]([O-])c1ccc(/C=N\Nc2ccc([N+](=O)[O-])cn2)cc1 | > 100 | > 100 | > 100 | > 100 | > 100 | > 100 | > 100 | > 100 | > 100 | > 100 | – | – | – | – | – | – | – | – | – | – |
| N=C(N)c1ccc(-c2ccc(-c3cncc4ccccc34)s2)cc1F | 3.27 | 3.24 | 4.48 | – | – | 3.51 | 3.26 | – | 3.67 | 3.51 | 1.72 | 1.73 | 1.68 | – | – | 1.83 | 1.75 | – | 1.75 | 1.74 |
| Nc1ccc(OCC(O)N2C(=O)c3ccccc3C2=O)cc1 (stereo not given) | > 100 | > 100 | > 100 | > 100 | > 100 | – | > 100 | – | – | > 100 | – | – | – | – | – | – | – | – | – | – |
| C/C1=N\NC(=O)c2ccccc2C(=O)N/N=C(\C)c2cccc1n2.O=[N+]([O-])[O-].[Zn+2] | > 100 | > 100 | > 100 | > 100 | > 100 | > 100 | > 100 | > 100 | – | > 100 | – | – | – | – | – | – | – | – | – | – |
